Read-outs that look alike come from different tables or passages of the source.
Assays:
[1] = system: P. falciparum male gametocytes; assay: P. falciparum Dual Gamete Formation Assay (PfDGFA), male readout (exflagellation); format: cell-based, Plasmodium falciparum NF54; settings: for Selectivity Ratio M: HepG2 Tox50 versus male IC50; for IC50: PfDGFA, 24 h incubation with gametocytes before induction, exflagellation readout, read-out: Male IC50; for HitlevelM: number of replicates with >50% inhibition in the male readout
Procedure, shortened: (§1)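 First, day-14 P. falciparum NF54 gametocytes receive compound for 24 h at 37°C in 1% O2/3% CO2. Next, ookinete medium with Cy3 anti-Pfs25 triggers gametogenesis at 28°C and male exflagellation is imaged. Finally, after 24 h in the dark, Cy3-labelled females are imaged.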

HepG2 cells = assay: HepG2 cytotoxicity counter-screen
[2] = system: P. falciparum female gametocytes; assay: P. falciparum Dual Gamete Formation Assay (PfDGFA), female readout (Pfs25-positive female gametes); format: cell-based, Plasmodium falciparum NF54; settings: for Selectivity ratio F: HepG2 Tox50 versus female IC50; for IC50: PfDGFA, 24 h incubation with gametocytes before induction, female gamete readout, read-out: Female IC50; for HitlevelF: number of replicates with >50% inhibition in the female readout
Procedure, shortened: as §1

[3] = 2µM, 24h preincubation with gametocytes, average of replicates
[4] = 2µM, 24h preincubation with gametocytes, replicate R1
[5] = 2µM, 24h preincubation with gametocytes, replicate R4
[6] = cytotoxic activity against HepG2 cells
[7] = PfDGFA at 2µM, 24h preincubation with gametocytes, average of replicates
[8] = PfDGFA at 2µM, 24h preincubation with gametocytes, replicate R1
[9] = PfDGFA at 2µM, 24h preincubation with gametocytes, replicate R3
[10] = PfDGFA at 2µM, 24h preincubation with gametocytes, replicate R4
[11] = 2µM, 24h preincubation with gametocytes prior to induction of gametogenesis, average of replicates
[12] = 2µM, 24h preincubation with gametocytes prior to induction of gametogenesis, replicate R1
[13] = 2µM, 24h preincubation with gametocytes prior to induction of gametogenesis, replicate R3
[14] = 2µM, 24h preincubation with gametocytes prior to induction of gametogenesis, replicate R4
[15] = PfDGFA at 2µM, 24h preincubation with gametocytes prior to induction of gametogenesis, replicate R1
[16] = PfDGFA at 2µM, 24h preincubation with gametocytes prior to induction of gametogenesis, replicate R3
[17] = PfDGFA at 2µM, 24h preincubation with gametocytes prior to induction of gametogenesis, replicate R4
[18] = PfDGFA at 2µM, 24h preincubation, average of replicates

Row | Structure (SMILES) | Selectivity Ratio M [1] | IC50 [1] | Tox50 (HepG2 cells; [6]) | Selectivity ratio F [2] | IC50 [2] | Average inhibition male (%) [1, 11] | % inhibition male (individual replicates) R1 [1, 12] | % inhibition male (individual replicates) R3 [1, 13] | % inhibition male (individual replicates) R4 [1, 14] | HitlevelM ([1]; 2µM, 24h preincubation) | Average inhibition female (%) [2, 11] | % inhibition female (individual replicates) R1 [2, 12] | % inhibition female (individual replicates) R3 [2, 13] | % inhibition female (individual replicates) R4 [2, 14] | HitlevelF ([2]; 2µM, 24h preincubation) | other results
1 | CS(=O)(=O)O.FC(F)(F)COc1ccc(CCNCCCCNCCc2ccc(OCC(F)(F)F)c3ccccc23)c2ccccc12 [TCMDC-137282] | 4.68 | 510 nM | 2.39 µM | 1.73 | 1380 nM | – | – | – | – | – | – | – | – | – | – | Average inhibition male (%) [1, 3]: 98.5%; % inhibition male (individual replicates) R1 [1, 4]: 98.3%; % inhibition male (individual replicates) R4 [1, 5]: 97.4%; Average inhibition female (%) [2, 3]: 56.0%; % inhibition female (individual replicates) R1 [2, 4]: 58.1%; % inhibition female (individual replicates) R3 ([2]; 2µM, 24h preincubation with gametocytes, replicate R3): 59.1%; % inhibition female (individual replicates) R4 [2, 5]: 54.8%
2 | FC(F)(F)c1ccc2[nH]c(-c3cccc(-c4ccc(CNCCN5CCNCC5)cc4)c3)nc2c1.O=C(O)C(F)(F)F [TCMDC-132872] | 9.17 | 1580 nM | 14.49 µM | 2.18 | 6650 nM | – | – | – | – | – | – | – | – | – | – | Average inhibition male (%) [1, 7]: 72.1%; % inhibition male (individual replicates) R1 [1, 8]: 71.0%; % inhibition male (individual replicates) R3 [1, 9]: 37.9%; % inhibition male (individual replicates) R4 [1, 10]: 97.6%; HitlevelM ([1]; 2µM): 3; Average inhibition female (%) [2, 7]: 30.3%; % inhibition female (individual replicates) R1 [2, 8]: 24.6%; % inhibition female (individual replicates) R3 [2, 9]: 21.1%; % inhibition female (individual replicates) R4 [2, 10]: 42.9%; HitlevelF ([2]; 2µM): 0
3 | COc1ccc(NC(=O)c2cccc(Br)c2)cc1N1CCN(CCCCCCCN2CCN(c3cc(NC(=O)c4cccc(Br)c4)ccc3OC)CC2)CC1.Cl [TCMDC-139020] | 4 | 1980 nM | 7.95 µM | 4.34 | 1830 nM | 30.8% | 35.3% | 36.0% | 43.4% | 0 | 52.2% | 51.4% | 52.5% | 56.9% | 3 | –
4 | CC[C@H]1CN2CCc3cc(OC)c(OC)cc3[C@@H]2C[C@@H]1C[C@H]1NCCc2c1cc(OC)c(O)c2Cl [TCMDC-131802] | – | 1910 nM | – | – | 640 nM | 54.2% | 49.4% | 27.8% | 72.9% | 2 | 66.5% | 51.1% | 66.5% | 85.4% | 4 | Tox50 (HepG2 cells): 1.67 µM
5 | Cc1ccc(S(=O)(=O)N(CCCNCc2cccc(O)c2)c2ccccc2)cc1 [TCMDC-138022] | 100.82 | – | 31.57 µM | 4.12 | – | – | – | – | – | – | – | – | – | – | – | inhibition at 2 µM ([1]; Plasmodium falciparum, 2µM, 24h preincubation with gametocytes, average of replicates, read-out: Average inhibition male (%)): 98.1%; inhibition at 2 µM ([1]; Plasmodium falciparum, 2µM, 24h preincubation with gametocytes, replicate R1, read-out: % inhibition male (individual replicates) R1): 102%; inhibition at 2 µM ([1]; Plasmodium falciparum, 2µM, 24h preincubation with gametocytes, replicate R2, read-out: % inhibition male (individual replicates) R2): 101%; inhibition at 2 µM ([1]; Plasmodium falciparum, 2µM, 24h preincubation with gametocytes, replicate R3, read-out: % inhibition male (individual replicates) R3): 97.3%; inhibition at 2 µM ([1]; Plasmodium falciparum, 2µM, 24h preincubation with gametocytes, replicate R4, read-out: % inhibition male (individual replicates) R4): 91.8%; IC50 ([1]; Plasmodium falciparum): 310 nM; inhibition at 2 µM ([2]; Plasmodium falciparum, 2µM, 24h preincubation with gametocytes, average of replicates, read-out: Average inhibition female (%)): 63.8%; inhibition at 2 µM ([2]; Plasmodium falciparum, 2µM, 24h preincubation with gametocytes, replicate R1, read-out: % inhibition female (individual replicates) R1): 52.6%; inhibition at 2 µM ([2]; Plasmodium falciparum, 2µM, 24h preincubation with gametocytes, replicate R2, read-out: % inhibition female (individual replicates) R2): 60%; inhibition at 2 µM ([2]; Plasmodium falciparum, 2µM, 24h preincubation with gametocytes, replicate R3, read-out: % inhibition female (individual replicates) R3): 91.9%; inhibition at 2 µM ([2]; Plasmodium falciparum, 2µM, 24h preincubation with gametocytes, replicate R4, read-out: % inhibition female (individual replicates) R4): 50.6%; IC50 ([2]; Plasmodium falciparum): 7660 nM
6 | c1ccc(Oc2ccc(Nc3ccnc4cc(-c5cccc(CNCCN6CCOCC6)c5)ccc34)cc2)cc1 [TCMDC-138474] | – | – | – | – | – | 19.3% | 25.4% | -12.1% | 25.6% | 0 | 29.1% | 38.4% | 13.4% | 18.2% | 0 | –
7 | CN(C)Cc1c(O)ccc2[nH]c(-c3cccc(F)c3)nc12 [TCMDC-136535] | – | – | – | – | – | – | – | – | – | – | – | – | – | – | – | % inhibition male (individual replicates) R1 [1, 15]: -6.0%; % inhibition male (individual replicates) R3 [1, 16]: -26.3%; % inhibition male (individual replicates) R4 [1, 17]: 8.9%; Average inhibition male (%) [1, 18]: -3.8%; % inhibition female (individual replicates) R1 [2, 15]: 14.3%; % inhibition female (individual replicates) R3 [2, 16]: -20.0%; % inhibition female (individual replicates) R4 [2, 17]: -2.1%; Average inhibition female (%) [2, 18]: -3.2%
8 | Cc1cc(C(=O)OCC(=O)Nc2c(C)n(C)n(-c3ccccc3)c2=O)c(C)n1-c1ccc(F)cc1 [TCMDC-123794] | 52.65 | – | – | 69.69 | – | – | – | – | – | 3 | – | – | – | – | 2 | inhibition at 2 µM ([1]; Plasmodium falciparum, 2µM, 24h preincubation with gametocytes prior to induction of gametogenesis, average of replicates, read-out: Average inhibition male (%)): 57.2%; inhibition at 2 µM ([1]; Plasmodium falciparum, 2µM, 24h preincubation with gametocytes prior to induction of gametogenesis, replicate R1, read-out: % inhibition male (individual replicates) R1): 63.3%; inhibition at 2 µM ([1]; Plasmodium falciparum, 2µM, 24h preincubation with gametocytes prior to induction of gametogenesis, replicate R2, read-out: % inhibition male (individual replicates) R2): 40.1%; inhibition at 2 µM ([1]; Plasmodium falciparum, 2µM, 24h preincubation with gametocytes prior to induction of gametogenesis, replicate R3, read-out: % inhibition male (individual replicates) R3): 55.8%; inhibition at 2 µM ([1]; Plasmodium falciparum, 2µM, 24h preincubation with gametocytes prior to induction of gametogenesis, replicate R4, read-out: % inhibition male (individual replicates) R4): 69.6%; IC50 ([1]; Plasmodium falciparum): 1900 nM; inhibition at 2 µM ([2]; Plasmodium falciparum, 2µM, 24h preincubation with gametocytes prior to induction of gametogenesis, average of replicates, read-out: Average inhibition female (%)): 48.8%; inhibition at 2 µM ([2]; Plasmodium falciparum, 2µM, 24h preincubation with gametocytes prior to induction of gametogenesis, replicate R1, read-out: % inhibition female (individual replicates) R1): 29.7%; inhibition at 2 µM ([2]; Plasmodium falciparum, 2µM, 24h preincubation with gametocytes prior to induction of gametogenesis, replicate R2, read-out: % inhibition female (individual replicates) R2): 52.6%; inhibition at 2 µM ([2]; Plasmodium falciparum, 2µM, 24h preincubation with gametocytes prior to induction of gametogenesis, replicate R3, read-out: % inhibition female (individual replicates) R3): 40.8%; inhibition at 2 µM ([2]; Plasmodium falciparum, 2µM, 24h preincubation with gametocytes prior to induction of gametogenesis, replicate R4, read-out: % inhibition female (individual replicates) R4): 72.3%; IC50 ([2]; Plasmodium falciparum): 1430 nM
9 | Cc1cccc2nc(-c3ccc(-c4ccc(CN5CCN(C6CCN(C)CC6)CC5)cc4)s3)[nH]c12.O=C(O)C(F)(F)F [TCMDC-133866] | – | – | – | – | – | 12.4% | 12.8% | 24.6% | 21.2% | 0 | 32.5% | 26.9% | 41.8% | 27.5% | 0 | –

Source: publication PMC10584170, “Machine learning-based phenotypic imaging to characterise the targetable biology of Plasmodium falciparum male gametocytes for the development of transmission-blocking antimalarials” (PLOS Pathogens, 2023)
